# According to the supplement of paper PMC10307832:
# Legend:
# Test in all cases: relative viability (nuclei count vs DMSO), 5 days (fraction); higher = more cells survive
# [1] = compound: C1COCCN1C2=NC(=NC3=C2OC4=C3C=CC=N4)C5=CC(=CC=C5)NC(=O)C6=CN=C(C=C6)N + NC(=O)Nc1cc(-c2cccc(F)c2)sc1C(=O)N[C@H]1CCCNC1 [AZD7762] (partner 0.2 µM)
# Outline: (§1)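 Lung cancer cell lines were pin-tool dosed in 1536-well plates on the day after seeding, with either a lone drug or a fixed anchor-drug dose plus five library-drug doses (not always all listed) in √10 steps. Nuclei were counted on 4× images after 5 days. Relative viability is the ratio of treated-well to vehicle-well nuclei counts, with each value a median of duplicate plates.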
# Entinostat + Trametinib = compound: Nc1ccccc1NC(=O)c1ccc(CNC(=O)OCc2cccnc2)cc1 [Entinostat] + CC(=O)Nc1cccc(-n2c(=O)n(C3CC3)c(=O)c3c(Nc4ccc(I)cc4F)n(C)c(=O)c(C)c32)c1 [Trametinib] (partner 0.02 µM)
# Outline: as §1
# [2] = compound: C1COCCN1C2=NC(=NC3=C2OC4=C3C=CC=N4)C5=CC(=CC=C5)NC(=O)C6=CN=C(C=C6)N + Nc1nc2[nH]cc(CCc3ccc(C(=O)N[C@@H](CCC(=O)O)C(=O)O)cc3)c2c(=O)[nH]1 [Pemetrexed] (partner 0.2 µM)
# Outline: as §1
# [3] = compound: C1COCCN1C2=NC(=NC3=C2OC4=C3C=CC=N4)C5=CC(=CC=C5)NC(=O)C6=CN=C(C=C6)N + Nc1ncn([C@H]2C[C@H](O)[C@@H](CO)O2)c(=O)n1 [Decitabine] (partner 2 µM)
# Outline: as §1
Cell Line,relative viability ([1]; first compound 0.02 µM),relative viability ([1]; first compound 0.06325 µM),relative viability ([1]; first compound 0.2 µM),relative viability ([1]; first compound 0.6325 µM),relative viability ([1]; first compound 2 µM),relative viability (Entinostat + Trametinib; first compound 0.02 µM),relative viability (Entinostat + Trametinib; first compound 0.06325 µM),relative viability (Entinostat + Trametinib; first compound 0.2 µM),relative viability (Entinostat + Trametinib; first compound 0.6325 µM),relative viability (Entinostat + Trametinib; first compound 2 µM),relative viability ([2]; first compound 0.02 µM),relative viability ([2]; first compound 0.06325 µM),relative viability ([2]; first compound 0.2 µM),relative viability ([2]; first compound 0.6325 µM),relative viability ([2]; first compound 2 µM),relative viability ([3]; first compound 0.02 µM),relative viability ([3]; first compound 0.06325 µM),relative viability ([3]; first compound 0.2 µM),relative viability ([3]; first compound 0.6325 µM),relative viability ([3]; first compound 2 µM)
LXF-289,1.08,1.3,1.08,1.09,0.67,0.642,0.653,0.652,0.408,0.453,0.945,1,0.873,0.923,0.647,0.36,0.438,0.329,0.457,0.409
NCI-H23,0.241,0.23,0.24,0.174,0.216,0.411,0.475,0.483,0.394,0.215,0.836,0.721,0.529,0.493,0.344,0.285,0.371,0.288,0.378,0.277
NCI-H322M,0.543,0.49,0.575,0.56,0.516,0.546,0.534,0.542,0.525,0.502,0.685,0.588,0.565,0.628,0.621,0.708,0.64,0.695,0.69,0.64
NCI-H358,0.442,0.475,0.443,0.465,0.409,0.175,0.164,0.135,0.117,0.127,0.176,0.182,0.137,0.222,0.135,0.221,0.212,0.211,0.247,0.182
NCI-H441,0.96,1.17,1.1,1.09,0.738,0.498,0.687,0.568,0.227,0.147,0.278,0.251,0.248,0.245,0.251,0.23,0.298,0.27,0.326,0.248
NCI-H460,0.609,0.784,0.587,0.653,0.359,0.226,0.0831,0.0851,0.0455,0.0239,0.0585,0.0645,0.0766,0.0835,0.0565,0.55,0.563,0.517,0.525,0.195
NCI-H522,0.708,0.867,0.773,0.834,0.684,0.812,0.966,0.799,0.844,0.841,0.915,0.966,0.941,0.972,0.963,0.633,0.798,0.694,0.563,0.645
NCI-H596,1.15,1.06,0.97,1.06,0.929,0.748,0.638,0.807,0.649,0.459,0.569,0.488,0.523,0.467,0.393,0.951,0.971,1.15,–,1.07
NCI-H647,0.481,0.627,0.373,0.527,0.359,0.48,0.398,0.525,0.322,0.133,0.175,0.155,0.141,0.138,0.114,0.524,0.478,0.527,0.519,0.325
NCI-H650,1.08,1,0.993,0.809,0.852,1.06,1,0.917,0.708,0.487,0.95,0.918,0.945,0.835,0.782,0.315,0.361,0.333,0.443,0.494
NCI-H838,0.95,0.967,0.999,0.827,0.755,0.531,0.548,0.626,0.395,0.167,0.257,0.246,0.25,0.242,0.167,0.437,0.437,0.413,0.5,0.371
NCI-H1355,0.875,0.765,0.713,0.66,0.539,0.443,0.402,0.337,0.344,0.243,1.04,1.05,1.01,0.944,0.924,0.377,0.374,0.372,0.43,0.418
NCI-H1395,0.387,0.348,0.374,0.371,0.372,1.08,1.09,0.977,0.79,0.699,0.941,0.87,0.735,0.643,0.692,0.719,0.672,0.75,0.788,0.849
NCI-H1437,1.1,1.07,1.12,1.13,0.91,0.406,0.31,0.276,0.276,0.221,0.339,0.311,0.308,0.366,0.254,0.574,0.646,0.615,0.696,0.458
NCI-H1648,0.619,0.747,0.641,0.698,0.539,0.507,0.682,0.436,0.653,0.472,0.743,0.893,0.819,0.754,0.554,0.41,0.481,0.456,0.509,0.52
NCI-H1651,0.507,0.563,0.476,0.461,0.36,0.931,0.844,0.844,0.745,0.606,0.615,0.581,0.572,0.599,0.31,0.65,0.643,0.614,0.66,0.568

Cell Line,relative viability ([1]; first compound 0.02 µM),relative viability ([1]; first compound 0.06325 µM),relative viability ([1]; first compound 0.2 µM),relative viability ([1]; first compound 0.6325 µM),relative viability ([1]; first compound 2 µM),relative viability (Entinostat + Trametinib; first compound 0.02 µM),relative viability (Entinostat + Trametinib; first compound 0.06325 µM),relative viability (Entinostat + Trametinib; first compound 0.2 µM),relative viability (Entinostat + Trametinib; first compound 0.6325 µM),relative viability (Entinostat + Trametinib; first compound 2 µM),relative viability ([2]; first compound 0.02 µM),relative viability ([2]; first compound 0.06325 µM),relative viability ([2]; first compound 0.2 µM),relative viability ([2]; first compound 0.6325 µM),relative viability ([2]; first compound 2 µM),relative viability ([3]; first compound 0.02 µM),relative viability ([3]; first compound 0.06325 µM),relative viability ([3]; first compound 0.2 µM),relative viability ([3]; first compound 0.6325 µM),relative viability ([3]; first compound 2 µM)
NCI-H1666,0.91,0.827,0.861,0.757,0.811,0.817,0.883,0.763,0.611,0.572,0.861,0.812,0.699,0.749,0.546,0.815,0.752,0.692,0.715,0.623
NCI-H1734,0.661,0.612,0.497,0.498,0.422,0.707,0.711,0.759,0.6,0.477,0.393,0.427,0.36,0.351,0.33,0.534,0.575,0.482,0.537,0.484
NCI-H1755,0.45,0.4,0.397,0.414,0.348,0.721,0.751,0.605,0.565,0.44,0.447,0.431,0.465,0.388,0.362,0.693,0.71,0.714,0.722,0.628
NCI-H1792,0.593,0.707,0.509,0.544,0.386,0.479,0.431,0.366,0.442,0.155,1.02,0.924,0.586,0.638,0.276,0.688,0.66,0.519,0.531,0.213
NCI-H1793,0.723,0.457,0.357,0.298,0.279,0.465,0.387,0.31,0.304,0.292,0.818,0.86,0.626,0.621,0.632,0.445,0.514,0.457,0.602,0.407
NCI-H1915,0.72,0.767,0.716,0.726,0.664,0.314,0.311,0.289,0.246,0.229,0.51,0.515,0.471,0.476,0.369,0.255,0.261,0.26,0.559,0.335
NCI-H1944,0.568,0.436,0.398,0.389,0.381,0.387,0.43,0.333,0.265,0.232,0.65,0.719,0.589,0.64,0.545,0.418,0.474,0.456,0.527,0.476
NCI-H1975,0.72,0.67,0.608,0.557,0.51,0.373,0.32,0.313,0.223,0.169,0.327,0.296,0.293,0.292,0.23,0.347,0.396,0.37,0.381,0.371
NCI-H1993,1.02,0.668,0.747,0.759,0.443,0.484,0.572,0.504,0.475,0.492,0.619,0.666,0.607,0.583,0.475,0.549,0.293,0.531,0.547,0.57
NCI-H2085,0.934,0.969,0.874,0.646,0.598,0.552,0.765,0.508,0.499,0.408,0.795,0.872,0.837,0.825,0.586,0.486,0.626,0.57,0.649,0.559
NCI-H2087,1.35,1.44,1.32,1.17,0.647,0.189,0.193,0.169,0.136,0.141,0.653,0.611,0.61,0.619,0.258,0.267,0.281,0.255,0.332,0.211
NCI-H2126,0.989,1.03,1.03,0.989,0.736,0.592,0.506,0.525,0.347,0.312,0.706,0.784,0.674,0.629,0.559,0.54,0.608,0.606,0.613,0.503
NCI-H2170,0.914,1.05,0.798,0.837,0.488,0.972,0.888,0.752,0.579,0.402,0.263,0.274,0.259,0.258,0.247,0.493,0.488,0.48,0.551,0.506
NCI-H2342,0.498,0.525,0.476,0.565,0.463,0.855,0.659,0.713,0.605,0.673,0.839,0.739,0.753,0.796,0.713,0.724,0.727,0.751,0.743,0.693
NCI-H2347,0.768,0.787,0.683,0.666,0.618,0.254,0.273,0.218,0.205,0.222,0.416,0.528,0.433,0.417,0.427,0.603,0.657,0.651,0.755,0.575
NCI-H2405,0.829,0.724,0.716,0.673,0.483,0.647,0.722,0.651,0.608,0.542,1.04,1.11,1.03,0.968,0.989,0.671,0.674,0.763,0.767,0.694
